“And” between values parts separate entries of the source, which are not always exact repeats. Equal entries are not always repeated.
Test system: mice's endocannabinoid system
Assay: maze and food trial: time the mice need to solve the maze after feed
Format: in vivo
Settings: for time to solve the maze, Time 0, individual mouse / time to solve the maze, Time 0, Average: 10 minutes after feed; for time to solve the maze, Time 0, individual mouse / time to solve the maze, Time 1, individual mouse: mouse # 1-10 in table order; for time to solve the maze, Time 0, Average / time to solve the maze, Time 1, Average: ten mice; for time to solve the maze, Time 1, individual mouse / time to solve the maze, Time 1, Average: 120 minutes after feed
Procedure: In an embodiment, the pharmaceutical composition of the present invention relates to an essential oil rich composition that supports the endocannabinoid system. Following tables 1-5 describe trials conducted with ten mice (Wistar) utilizing a maze and food to determine how long on average the mice solves the maze at 10 and 120 minutes after starting the experiment.
Table 1 is the base when the mice learned the experiment. It took 7 days of training (4 repetitions per day) to get the base time for each mice.
The Average Time results were statistically slower to the Control (Table 3) results with a standard deviation of less than 3%. The slowness with which the mice solved the maze leads us to believe either the embodiment has some entourage effect (as described by Ben-Shabat et. Al. in the European Journal of Pharmacology, 1998) or has supported the endocannabinoid system in mice because the mice took at least as long to solve the maze as before they developed tolerance to THC. The Entourage Effect was also described by Russo et. al. in his paper “Taming THC: potential cannabis synergy and phytocannabinoid-terpenoid entourage effects”, published in the British Journal of Pharmacology, 2011 August; 163(7): 1344-1364.
In this Table we see the results of THC 24 hours after the embodiment was administered. Mice on average take 1-5 hours to digest food. It is estimated that mice will have completely metabolized the embodiment after 24 hours. After THC was administered but now without the embodiment, mice are experiencing the same heightened effects of THC as in FIG. 4, even after the embodiment was not present in their body after a 24 hour period.

[1] = Day 1 CONTROL, 0.3 mgTHC/kg, before tolerance
[2] = Day 14 BASELINE 2 (acquired tolerance), 0.3 mgTHC/kg/day
[3] = TRIAL 2, 0.3 mgTHC + 0.0 mg embodiment/kg, THC 24 hours after the embodiment was administered

SMILES: CCCCCc1cc(O)c2c(c1)OC(C)(C)[C@@H]1CCC(C)=C[C@@H]21 [THC, Tetrahydrocannabinol]
- time to solve the maze, Time 0, individual mouse [1]: 16 ± 3 minutes and 17 ± 3 minutes (2×) and 23 ± 3 minutes and 20 ± 3 minutes and 25 ± 3 minutes and 30 ± 3 minutes and 26 ± 3 minutes and 19 ± 3 minutes and 24 ± 3 minutes
- time to solve the maze, Time 0, Average [1]: 22 ± 3 min
- time to solve the maze, Time 1, individual mouse [1]: 14 ± 3 minutes (2×) and 10 ± 3 minutes (2×) and 19 ± 3 minutes (2×) and 22 ± 3 minutes (2×) and 21 ± 3 minutes and 16 ± 3 minutes
- time to solve the maze, Time 1, Average [1]: 17 ± 3 min
- time to solve the maze, Time 0, individual mouse [2]: 16 ± 3 minutes (2×) and 19 ± 3 minutes (2×) and 18 ± 3 minutes (2×) and 14 ± 3 minutes and 13 ± 3 minutes and 12 ± 3 minutes and 11 ± 3 minutes
- time to solve the maze, Time 0, Average [2]: 14 ± 3 min
- time to solve the maze, Time 1, individual mouse [2]: 14 ± 3 minutes and 15 ± 3 minutes (2×) and 12 ± 3 minutes and 10 ± 3 minutes (4×) and 11 ± 3 minutes (2×)
- time to solve the maze, Time 1, Average [2]: 12 ± 3 min
- time to solve the maze, Time 0, individual mouse [3]: 27 ± 3 minutes (2×) and 20 ± 3 minutes and 22 ± 3 minutes (2×) and 17 ± 3 minutes and 16 ± 3 minutes and 21 ± 3 minutes and 18 ± 3 minutes and 29 ± 3 minutes
- time to solve the maze, Time 0, Average [3]: 22 ± 3 min
- time to solve the maze, Time 1, individual mouse [3]: 22 ± 3 minutes and 19 ± 3 minutes (2×) and 16 ± 3 minutes and 23 ± 3 minutes and 15 ± 3 minutes and 12 ± 3 minutes and 9 ± 3 minutes and 17 ± 3 minutes and 20 ± 3 minutes
- time to solve the maze, Time 1, Average [3]: 17 ± 3 min
- maze solved faster on average than the Control Time, T0 (after 15 days of daily THC dose of 0.3 mgTHC/kg, Time 0 (10 minutes after feed), tolerance to THC): 40%
- maze solved faster on average than the Control Time, T1 (after 15 days of daily THC dose of 0.3 mgTHC/kg, Time 1 (120 minutes after feed), tolerance to THC): up to 60%

Reference: patent US20210330596A1, “PHARMACEUTICAL COMPOSITION FOR USE IN A COMBINATION WITH CA[…] ENHANCE BENEFITS OF CA[…] SUPPORT HUMAN ENDOCANNABINOID SYSTEM” (priority 2020, published 2021)
